Each block holds one compound with its values, some of them ahead of it.
What was measured:
[1] = system: globin; settings: rats and mice exposed to 1,3-[2,3-14C]-butadiene; cited from earlier work
[2] = cited from earlier work
[3] = 6.25 to 1000 ppm, mice and rats; cited from earlier work
[4] = rodents given BDD or BMO; cited from earlier work
[5] = cited from earlier work; remark: listed apart in the source
[6] = buffer, pH 9
[7] = buffer, pH 9; remark: listed apart in the source
[8] = buffer, pH 7.4

SMILES: C=[14CH][14CH]=C [1,3-[2,3-^14C]-butadiene]
Total globin radioactivity characterized as trihydroxybutyl adducts [1]: 1−2%

SMILES: C=CC=C [BD, 1,3-Butadiene]
International Agency for Research on Cancer classification [2]: are carcinogenic to humans
National Toxicology Program classification [2]: known to be a human carcinogen
Tumor formation after long-term inhalation exposure [3]: tumor formation at multiple organ sites

SMILES: C=CC(O)CO (centres unmarked) [BDD, 3-butene-1,2-diol]
Amount of BDD detected in the urine [4]: < 5%
HMVK-derived mercapturates as share of the administered BDD dose [5]: 4−8%

Estimated half-life of HMVK, HMVK + L-valinamide [6]: 13.5 min
Estimated half-life of HMVK, HMVK + NAL [7]: 45 min
Time at which all of HMVK was consumed (HMVK 3 mM, NAC 6 mM, pH 7.4, 37 °C): 0.5 h
Estimated half-life of HMVK, HMVK + NAC (buffer, pH 7.4): instantaneous
SMILES: C=CC(=O)CO [HMVK, hydroxymethylvinyl ketone]
Half-life of HMVK in the absence of nucleophilic amino acids [8]: a Half-life of HMVK when incubated at a concentration of 3 mM at pH 7.4, 37 °C in the absence of nucleophilic amino acids was determined to be 710 min. ND, not determined. Half-lives were estimated assuming pseudo-first order kinetics. Data is representative of typical experimental values.

— publication PMC2683906 (Chemical research in toxicology, 2009)
